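Assay format: 96-well plates, 48-hour exposure. Here, GI50 denotes the concentration required for 50% inhibition of growth.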 Active and inactive are the calls of the source. No stated cut-off is given here; in the data, active = GI50 up to about 1.1 µM and inactive = higher.

As usually defined, the GI50 is the concentration at which growth is held to half of that of the control.

Some test systems named below: T47D; UO-31; HOP-92; SK-MEL-5; HOP-62; MDA-MB-231; SF-539; SW-620; K562; SF-268; UACC-257; ACHN; OVCAR-5; M19-MEL; BT-549; MDA-N; RXF 393; MDA-MB-435; SK-MEL-2; KM12.
What all share (test): DTP human tumour cell line panel, 48 h

Regarding `O=C(CCN1CCCCC1)Nc1ccc2c(c1)C(=O)c1ccc(NC(=O)CCN3CCCCC3)cc1C2=O`, the GI50 with T47D was 16.5 µM (inactive); with UO-31 it was 12.4 µM (inactive); in the assay with HOP-92, 15.4 µM (inactive); in the assay with SK-MEL-5, 5.71 µM (inactive); in the assay on HOP-62 it was 2.12 µM (inactive); in the assay with MDA-MB-231, 2.04 µM (inactive). In addition, the GI50 in the assay with SF-539 was 2.61 µM (inactive); in the assay with SW-620 it was 2.1 µM (inactive); with K562 it was 2.25 µM (inactive); with SF-268 it was 7.96 µM (inactive); in the assay on UACC-257 it was 16.3 µM (inactive); in the assay on ACHN, 11.6 µM (inactive). Also, the GI50 was 16.5 µM (inactive) in the assay on OVCAR-5; 43.1 µM (inactive) in the assay on M19-MEL; 14.6 µM (inactive) in the assay on BT-549; 1.65 µM (inactive) with MDA-N; 3.85 µM (inactive) in the assay with RXF 393; 1.82 µM (inactive) with MDA-MB-435. The GI50 is 5.16 µM (inactive) with SK-MEL-2 and 1.62 µM (inactive) in the assay with KM12.

Turning to `O=C(O)C1=C(C(=O)O)Oc2ccccc2O1`, the GI50 with UO-31, in the assay with HOP-92, in the assay with HOP-62, in the assay on SF-539, with SW-620 and with K562 was > 100 µM (inactive) throughout. Further, the GI50 in the assay on SF-268, in the assay with UACC-257, in the assay on ACHN, in the assay on OVCAR-5, in the assay with M19-MEL and with RXF 393 was > 100 µM (inactive) each time. Further, the GI50 in the assay on SK-MEL-2 and with KM12 was > 100 µM (inactive) each time.

Regarding `CC(=O)OC(C)(C)[C@@H]1CC[C@]2(C)/C=C/[C@H](C)C[C@@H](O)C3=C(C)C[C@@H](O3)C12` (some centres not stated), the GI50 with UO-31, in the assay on HOP-92, with SK-MEL-5, in the assay on HOP-62, with SF-539 and in the assay on SW-620 was > 100 µM (inactive) in each case. Moreover, the GI50 in the assay on K562, with SF-268, in the assay with UACC-257, in the assay with ACHN, in the assay with OVCAR-5 and in the assay with M19-MEL was > 100 µM (inactive) throughout. Besides, the GI50 was 94.6 µM (inactive) in the assay on RXF 393, > 100 µM (inactive) with SK-MEL-2 and > 100 µM (inactive) in the assay on KM12.

In the case of `CC(C)(Oc1ccc(C(=O)c2ccc(Cl)cc2)cc1Cl)C(=O)Nc1c(Cl)cccc1Cl`, the GI50 was 23 µM (inactive) in the assay on UO-31; > 100 µM (inactive) in the assay with HOP-92; 20 µM (inactive) in the assay on SK-MEL-5; > 100 µM (inactive) in the assay with HOP-62; > 100 µM (inactive) with SF-539; > 100 µM (inactive) in the assay with SW-620. Moreover, the GI50 with K562 is 5.64 µM (inactive); in the assay on SF-268 it was > 100 µM (inactive); in the assay with UACC-257 it was > 100 µM (inactive); in the assay on OVCAR-5, > 100 µM (inactive); in the assay with M19-MEL, > 100 µM (inactive); with RXF 393, < 0.01 µM (active). Further, the GI50 with SK-MEL-2 and in the assay on KM12 was > 100 µM (inactive) each time.

As for `Cc1nc(-n2nc(-c3ccccc3)cc2-c2ccccc2)sc1C(=O)/C=C/c1cccc([N+](=O)[O-])c1`, the GI50 is 11.6 µM (inactive) in the assay with UO-31; 22.9 µM (inactive) in the assay on HOP-92; 12.7 µM (inactive) in the assay on SK-MEL-5; 15.9 µM (inactive) in the assay on HOP-62; 10.9 µM (inactive) in the assay on SF-539; > 10 µM (inactive) in the assay on SW-620. Further, the GI50 is 8.75 µM (inactive) with K562; 12.3 µM (inactive) with SF-268; 22.5 µM (inactive) with UACC-257; 23.3 µM (inactive) in the assay with ACHN; 23.7 µM (inactive) with OVCAR-5; 16.4 µM (inactive) with M19-MEL. Also, the GI50 is 14.1 µM (inactive) with RXF 393, 17.7 µM (inactive) in the assay with SK-MEL-2 and 2.62 µM (inactive) in the assay with KM12.

For `CN(C(=O)c1cccs1)C(=S)N1CCN(c2ccccn2)CC1`, the GI50 in the assay with UO-31, in the assay with HOP-92, in the assay with SK-MEL-5, in the assay with HOP-62, with SF-539 and in the assay with SW-620 was > 100 µM (inactive) each time. The GI50 with K562, in the assay with SF-268, in the assay on UACC-257, with ACHN, with OVCAR-5 and in the assay on M19-MEL was > 100 µM (inactive) throughout. Moreover, the GI50 in the assay with RXF 393, in the assay with SK-MEL-2 and in the assay on KM12 was > 100 µM (inactive) throughout.

In the case of `C=CCC(N(C)C(=O)[C@H](Cc1ccccc1)NC(=O)OCc1ccccc1)P(=O)(Oc1ccccc1)Oc1ccccc1` (some centres not stated), the GI50 was 5.5 µM (inactive) in the assay on UO-31; 29 µM (inactive) with HOP-92; > 100 µM (inactive) in the assay on HOP-62; > 100 µM (inactive) in the assay on SF-539; > 100 µM (inactive) in the assay with SW-620; 9.2 µM (inactive) in the assay on K562. The GI50 was > 100 µM (inactive) in the assay with SF-268; > 100 µM (inactive) with UACC-257; 6.5 µM (inactive) with ACHN; > 100 µM (inactive) with M19-MEL; > 100 µM (inactive) in the assay on RXF 393; > 100 µM (inactive) with SK-MEL-2. Besides, the GI50 in the assay with KM12 was > 100 µM (inactive).

Turning to `CN(C)c1ccc(/C=C/c2ccc(/C=C/c3ccc(N(C)C)cc3)cc2)cc1`, the GI50 in the assay on UO-31 is 41.2 µM (inactive); with HOP-92 it was 92.5 µM (inactive); in the assay on SK-MEL-5, 35.1 µM (inactive); in the assay with SF-539, > 100 µM (inactive); in the assay on SW-620, > 100 µM (inactive); in the assay on K562 it was 75.5 µM (inactive). Besides, the GI50 in the assay with SF-268 was > 100 µM (inactive); in the assay on UACC-257, 90.4 µM (inactive); with ACHN, 57.8 µM (inactive); with OVCAR-5, > 100 µM (inactive); in the assay on M19-MEL, > 100 µM (inactive); in the assay with RXF 393, > 100 µM (inactive). In addition, the GI50 in the assay with SK-MEL-2 and in the assay with KM12 was > 100 µM (inactive) throughout.

With `CC1C[C@@]2(c3ccccc3)C(=O)CCC[C@H]2N1` (some centres not stated), the GI50 is > 100 µM (inactive) in the assay with UO-31; 29.6 µM (inactive) in the assay with HOP-92; > 100 µM (inactive) in the assay with SK-MEL-5; > 100 µM (inactive) with HOP-62; > 100 µM (inactive) with SF-539; > 100 µM (inactive) in the assay on SW-620. Besides, the GI50 in the assay on K562, in the assay with SF-268, in the assay on UACC-257, in the assay on ACHN, in the assay on OVCAR-5 and with M19-MEL was > 100 µM (inactive) throughout. Further, the GI50 with RXF 393, in the assay with SK-MEL-2 and with KM12 was > 100 µM (inactive) each time.

As to `N#CCCN(C1=NN(C(=O)CC(=O)Nc2ccc(Cl)cc2)C(c2ccccc2)C1)c1ccc(Cl)cc1` (configuration not stated), the GI50 in the assay on UO-31, with HOP-92, in the assay on SK-MEL-5, in the assay with HOP-62, in the assay with SF-539 and in the assay on SW-620 was > 100 µM (inactive) in each case. Also, the GI50 with K562, in the assay on SF-268, with UACC-257, in the assay on ACHN, with OVCAR-5 and with M19-MEL was > 100 µM (inactive) each time. Moreover, the GI50 with RXF 393, with SK-MEL-2 and with KM12 was > 100 µM (inactive) throughout.

Turning to `CN(C)C(=O)Oc1c(-c2ccccc2)c(=O)n2c3ccccc3n3c(=O)n(C)c(=O)c1c23`, the GI50 in the assay on UO-31, in the assay on HOP-92, in the assay on SK-MEL-5, in the assay on HOP-62, in the assay with SF-539 and with SW-620 was > 100 µM (inactive) throughout. Further, the GI50 with SF-268, in the assay on UACC-257, in the assay with ACHN, with OVCAR-5, in the assay with M19-MEL and in the assay on RXF 393 was > 100 µM (inactive) throughout. In addition, the results for the GI50 in the assay with SK-MEL-2 and in the assay with KM12 were > 100 µM (inactive) and > 10 µM (inactive), respectively.

For the compound `CCOC(=O)C1COc2cc(-c3cc(=O)c4ccccc4o3)ccc2O1` (configuration not stated), the GI50 with UO-31 is 30.5 µM (inactive); in the assay on HOP-92, 10.4 µM (inactive); in the assay with SK-MEL-5, > 100 µM (inactive); in the assay with SF-539, 30.5 µM (inactive); with SW-620 it was > 100 µM (inactive); in the assay with K562, > 100 µM (inactive). Also, the GI50 is > 100 µM (inactive) with SF-268; > 100 µM (inactive) with ACHN; 78.9 µM (inactive) in the assay on OVCAR-5; 29.7 µM (inactive) with M19-MEL; 47.8 µM (inactive) in the assay with RXF 393; > 100 µM (inactive) with SK-MEL-2. Moreover, the GI50 with KM12 was > 100 µM (inactive).

As for `Cc1c(C(=O)CC(=O)C(=O)Nc2cccc(C(F)(F)F)c2)[n+]([O-])c2ccccc2[n+]1[O-]`, the GI50 was 16.3 µM (inactive) in the assay on UO-31; 14.3 µM (inactive) in the assay with HOP-92; 3.57 µM (inactive) with SK-MEL-5; 23.6 µM (inactive) with HOP-62; 3.13 µM (inactive) in the assay with SF-539; 3.54 µM (inactive) with SW-620. In addition, the GI50 with K562 was 3.8 µM (inactive); in the assay with SF-268, 3.67 µM (inactive); in the assay with UACC-257, 2.56 µM (inactive); in the assay with ACHN, 3.15 µM (inactive); with OVCAR-5, 7.28 µM (inactive); with M19-MEL it was 1.82 µM (inactive). The GI50 in the assay on RXF 393 is 11.5 µM (inactive); in the assay with SK-MEL-2, 4.28 µM (inactive); in the assay with KM12 it was 4.1 µM (inactive).

The values are drawn from ChEMBL document CHEMBL1201862, “PubChem BioAssay data set” (2004).
